Results: patent publication US7893256B2, “Azabicycloalkane compounds” (Theravance, Inc., priority 2003, dated 2011)

How the values were obtained:
[1] = target: T1, human β2 adrenergic receptor (Homo sapiens, UniProt P07550); assay: Whole-cell cAMP Flashplate assay in CHO cell lines heterologously expressing human β2 adrenergic receptor (Assay Test Procedure C); format: cell-based
T1 construct: expressed in transfected cells; membranes
Procedure: cAMP assays were performed in a radioimmunoassay format using the Flashplate Adenylyl Cyclase Activation Assay System with [^125I]-cAMP (NEN SMP004, PerkinElmer Life Sciences Inc., Boston, Mass.), according to the manufacturers instructions. For the determination of […] receptor agonist potency (EC50), CHO-K1 cell lines stably expressing cloned human β1, β2 or β3 adrenergic receptors were grown to near confluency in HAM's F-12 media supplemented with 10% FBS and Geneticin (250 μg/mL). Cells were rinsed with PBS and detached in dPBS (Dulbecco's Phosphate Buffered Saline, without CaCl2 and MgCl2) containing 2 mM EDTA or Trypsin-EDTA solution (0.05% trypsin/0.53 mM EDTA). After counting cells in Coulter cell counter, cells were pelleted by centrifugation at 1,000 rpm and re-suspended in stimulation buffer containing IBMX (PerkinElmer Kit) pre-warmed to room temperature to a concentration of 1.6×10^6 to 2.8×10^6 cells/mL. About 60,000 to 80,000 cells per well were used in this assay. […] The amount of cAMP produced (pmol/well) was calculated based on the counts observed for the samples and cAMP standards as described in the manufacturer's user manual. Data were analyzed by nonlinear regression analysis with the GraphPad Prism Software package (GraphPad Software, Inc., San Diego, Calif.) with the sigmoidal equation. […]

[2] = target: T1, human β2 adrenergic receptor; assay: Radioligand binding assay for human β2 adrenergic receptor (Assay Test Procedure A)
Procedure: Chinese hamster ovarian (CHO) cell lines stably expressing cloned human β1, β2 or β3 adrenergic receptors, respectively, were grown to near confluency in Hams F-12 media with 10% FBS in the presence of 500 μg/mL Geneticin. The cell monolayer was lifted with 2 mM EDTA in PBS. Cells were pelleted by centrifugation at 1,000 rpm, and cell pellets were either stored frozen at −80° C. or membranes were prepared immediately for use. For preparation of β1 and β2 receptor expressing membranes, cell pellets were re-suspended in lysis buffer (10 mM HEPES/HCl, 10 mM EDTA, pH 7.4 at 4° C.) and homogenized using a tight-fitting Dounce glass homogenizer (30 strokes) on ice. […] The protein concentration of the membrane suspension was determined by the methods described in Lowry et al., 1951, Journal of Biological Chemistry, 193, 265; and Bradford, Analytical Biochemistry, 1976, 72, 248-54. […]
Binding assays were performed in 96-well microtiter plates in a total assay volume of 100 μL with 10-15 μg of membrane protein containing the human β1, β2 or β3 adrenergic receptors in assay buffer (75 mM Tris/HCl pH 7.4 at 25° C., 12.5 mM MgCl2, 1 mM EDTA, 0.2% BSA). […] Non-specific binding was determined in the presence of 10 μM propranolol. […] Filter plates were washed three times with filtration buffer (75 mM Tris/HCl pH 7.4 at 4° C., 12.5 mM MgCl2, 1 mM EDTA) to remove unbound radioactivity. […]

T1 sequence (P07550 whole entry): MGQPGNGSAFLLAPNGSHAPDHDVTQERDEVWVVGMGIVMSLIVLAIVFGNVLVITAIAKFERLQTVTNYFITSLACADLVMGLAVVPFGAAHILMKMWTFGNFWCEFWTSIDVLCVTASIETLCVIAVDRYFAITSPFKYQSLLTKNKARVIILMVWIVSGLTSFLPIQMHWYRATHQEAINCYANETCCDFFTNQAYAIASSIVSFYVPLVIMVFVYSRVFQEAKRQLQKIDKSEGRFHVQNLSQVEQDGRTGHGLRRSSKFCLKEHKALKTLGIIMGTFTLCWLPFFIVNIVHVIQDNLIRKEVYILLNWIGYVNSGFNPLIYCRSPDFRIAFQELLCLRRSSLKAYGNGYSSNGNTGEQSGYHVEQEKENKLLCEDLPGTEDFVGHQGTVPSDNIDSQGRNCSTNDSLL

Which results are given for `C[N+]1(CCCCCCCCCNC[C@H](O)c2ccc(O)c3[nH]c(=O)ccc23)C2CC(OC(=O)C(O)(c3cccs3)c3cccs3)CC1C1OC12.C[N+]1(CCCCCCCCCNC[C@H](O)c2ccc(O)c3[nH]c(=O)ccc23)C2CC(OC(=O)C(O)(c3cccs3)c3cccs3)CC1C1OC12.O=C([O-])C(F)(F)F.O=C([O-])C(F)(F)F` (stereo partly drawn) [Example 1, 7-(2-Hydroxy-2,2-dithiophen-2-ylacetoxy)-9-{9-[(R)-2-hydroxy-2-(8-hydroxy-2-oxo-1,2-dihydroquinolin-5-yl)ethylamino]nonyl}-9-methyl-3-oxa-9-azonia-tricyclo[3.3.1.0^2,4]nonane Ditrifluoroacetate]?
EC50 ([1]; cAMP, CHO-K1 cells expressing cloned human β2 receptor): < 10 nM; ratio of EC50(β1)/EC50(β2) ([1]; receptor subtype selectivity, functional, β2 over β1): greater than 10; Ki ([2]; radioligand displacement, CHO cell membranes, [3H]-dihydroalprenolol): < 50 nM; ratio of Ki(β1)/Ki(β2) ([2]; receptor subtype selectivity, binding, β2 over β1): greater than 5
